Results on 1 compound are retold here after ChEMBL document CHEMBL1765059, “Bunodosine 391: an analgesic acylamino acid from the venom of the sea anemone Bunodosoma cangicum” (J Nat Prod, 2011).

The source made the active and inactive calls.

What all share (assay type): functional, organism-based
The test system of assay [1] is Rattus norvegicus. In words: Antinociceptive activity against carrageenan-induced hyperalgesia in Wistar rat assessed as increase in pain threshold at 105 nm/paw, i.pl in presence of 5 mg/kg of nonselective serotonin antagonist methysergide treated 30 mins before compound challenge. Details: dose 5 mg/kg.
Assay [2] has as its system Rattus norvegicus. Briefly: Antinociceptive activity against carrageenan-induced hyperalgesia in Wistar rat assessed as increase in pain threshold at 105 nm/paw, i.pl administered after 150 mins of carrageenan challenge by paw pressure test. For orientation: The carrageenan paw model is a standard test of acute inflammation.
The species named for assay [3] is Rattus norvegicus. In words: Antinociceptive activity against carrageenan-induced hyperalgesia in Wistar rat assessed as increase in pain threshold at 105 nm/paw, i.pl in presence of 1 ug/paw of opioid antagonist naloxone treated 30 mins before compound challenge.
For assay [4], the system named is Rattus norvegicus. In words: Antiinflammatory activity against carrageenan-induced edema in Wistar rat assessed as paw thickness at 105 nm/paw i.pl administered before 30 mins of carrageenan challenge.
Assay [5] deals with Rattus norvegicus. Briefly: Antinociceptive activity in i.pl dosed Wistar rat assessed as increase in pain threshold by paw pressure test.

On to `O=C(Cc1c[nH]c2cc(Br)ccc12)N[C@@H](Cc1c[nH]cn1)C(=O)O`, for which the result in the assay with Rattus norvegicus [1] was inactive. Also, the inhibition result with Rattus norvegicus [2] was “Active”. In addition, the outcome in the assay listed under Rattus norvegicus [3] was Active. In the assay with Rattus norvegicus [4], the inhibition result is “inactive”. The Activity result in the assay on Rattus norvegicus [5] is “Dose-dependent effect”.
